Columns and labels:
luminal MECs [1] = assay: Growth curve of luminal cells in monolayers; assay type: cell-based, human; conditions: luminal cultures
Procedure: FIGS. 14A-14D. Modulation of migratory and self-renewal abilities in basal and luminal MECs. (FIG. 14A) Growth curve: basal cells treated every 48 hrs with indicated factors, TGF-beta-type 1 receptor inhibitors A83-01 and SB431542 (10 μM), SFRP1 (1 μg/ml); cells were counted at indicated time points, n=2. (FIG. 14B) Growth curve: luminal cells treated every 48 hrs with indicated factors, TGF-beta 1 (5 ng/ml), Wnt5a (250 ng/ml), anti-DKK1-(10 μg/ml) and anti-E-Cadherin antibodies (1 μg/ml) or a combination of all factors (iEMT-II); cells were counted at indicated time points, n=2, (FIG. 14C) Microscopy images of basal cells treated as described in (A), at 4 days/before first passage. (FIG. 14D) Microscopy images of luminal cells treated as described in (B), at 4 days/before first passage.
Primary mammary epithelial cell culture. Single-cell suspensions of primary human mammary epithelial cells (MECs) were generated from reduction mammoplasties of pre-menopausal women as previously described (Stingl et al., 2001), Data from three donors are included in this study. Primary MECs were cultured on collagen I-coated plates (Millipore) in MEGM medium (Lonza) supplemented with 1% Fetal Bovine Serum in a humidified 4% O2, 5% CO2, atmosphere.

luminal MECs [2] = assay: Migration assay, primary luminal cells after pre-treatment; assay type: cell-based, human; conditions: 5-day treatment
Description: FIGS. 7A-7G. Migratory and self-renewal properties in primary MECs: inhibition and induction. (FIG. 7A) Mammosphere Assay: microscopy images of mammospheres and quantification of mammosphere formation by purified basal, luminal and unsorted MEC populations. Primary spheres were allowed to form over a period of 7 days, dissociated and seeded for secondary sphere formation, n(mammosphere)/1000 cells, n=48, (FIG. 7B) Migration Assay: microscopy images of migrated cells in Boyden Chambers and quantification, n=6. (FIG. 7C) Mammosphere Assay: basal cells were seeded into assay after a 5 day pre-treatment with TGF-beta inhibitors A83-01 and […] (SB43, both inhibitors at 10 μM) as well as recombinant SFRP1 (1 μg/ml), n(mammospheres)/1000 cells, n=6. (FIG. 7D) Migration Assay: basal cells were seeded into migration assays treated after 5 day pre-treatment as described in (C), n=24. (FIG. 7E) Mammosphere Assay: luminal cells were seeded into the assay following a 5 day pre-treatment with TGF-beta 1 (5 ng/ml), Wnt5a (250 ng/ml), anti-E-Cadherin antibody (1 μg/ml) plus anti-DKK1 antibody (10 μg/ml), and a cocktail of all factors added together (iEMT-II), n(mammospheres)/1000 cells, n=24. (FIG. 7F) Migration Assay: luminal cells were seeded into Boyden Chambers following a 5 day pre-treatment as described in (E), n=6. […]

[3] = system: RAS-transformed HMLE cells; assay: Lung metastasis of RAS-transformed treated HMLE cells from mammary fat pads; assay type: in vivo; conditions: cells implanted into mammary fat pads of mice
Procedure: FIGS. 5A-5H. Concomitant stimulation of Wnt and TGF-beta pathways allows HMLE^24+ cells to enter into a mesenchymal and SC-like state. (FIG. 5A) RT-PCR: N-Cadherin, Zeb1 and Zeb2, L32 was loading control, n=3. Prior RNA isolation, HMLE^24+-shGFP or -shSFRP1 (stable knockdown of SFRP1, FIG. 12A) cells were treated for 3 days with daily doses of indicated factors: anti-DKK1 antibody (10 μg/ml), anti-E-Cadherin antibody (1 μg/ml), TGF-beta 1 (5 ng/ml), Wnt5a (250 ng/ml), (FIG. 5B) Brightfield microscopy: images of control, TGF-beta- and iEMT-cocktail treated HMLE^24+ cells after 14 days of treatment as indicated (see also FIG. 12D). (FIG. 5C) RT-PCR: Zeb1, Zeb2, E-Cadherin and N-Cadherin, L32 was loading control, n=3. After 14 day treatment, cells were expanded in absence of further stimulation for 4 passages. […] (FIG. 5G) Lung metastasis: cells expanded for 8 passages after cessation of treatment as described in (C) were transformed with RAS; 1.0×10^5 cells were injected into the mammary fat pads of mice; GFP-labeled metastases on the surface of the lungs were quantified; *control vs. all other groups, p<0.05, n=5 mice/group. […]
Animal studies. […] Lung surface metastases were counted using a fluorescent microscope within 3 hr of specimen isolation.

TGF-beta 1: recombinant TGF-beta 1 protein, used at 5 ng/ml
proliferation in monolayers (luminal MECs [1]): significantly reduced | increase in motile cells (luminal MECs [2]): 8 fold | lung metastatic foci of RAS-transformed treated cells [3]: only weakly metastatic

Source: US9308238B2, “Compositions and methods for modulating EMT and uses thereof” (Whitehead Institute for Biomedical Research, priority 2010, dated 2016)
